In patent US20220202811A1, “TREATMENT FOR RETINOIC ACID RECEPTOR-RELATED ORPHAN RECEPTOR Ɣ (RORƔ)-DEPENDENT CANCERS” (The Regents of the University of California, priority 2019, published 2022):
Entries after “also recorded” stand apart in the source; their conditions may differ.

Key:
[1] = test system: Fast Growing (FG) cells; experiment: Fast Growing (FG) cell xenografts in mice; assay type: in vivo, human
Source text: (§1) FIG. 45 is a compilation of all data from mice bearing PDX or FG cancer xenographs, including PDX1424, PDX1444, and FG.

[2] = test system: primary patient-derived PDX1424 cancer cells; experiment: PDX1424 xenografts in mice; assay type: in vivo, human
Source text: as §1
(§2) Finally, the impact of JTE-151 was examined in vivo on mice bearing primary patient-derived pancreatic cancer xenografts (FIGS. 70-78). […] FIGS. 70-72 show 3 rounds of treatment in an experiment using mice bearing PDX1356 xenographs. The horizontal axis of the first panel in each of FIGS. 70-72 represents days of treatment, and the vertical axis represents tumor volume. The horizontal axis of each of the remaining panels represents the target (vehicle vs. JTE-151 mouse), and the vertical axis represents the specified measurement. JTE-151 was given at the regimen as specified in the figures. For example, in the first round (FIG. 70), JTE-151 was given at 90 mg/kg body weight once per day for the first 25 days, then twice per day from day 26 though day 40.
(§3) Two other primary patient-derived xenografts, PDX1535 (FIGS. 74 and 75) and PDX1424 (FIGS. 76 and 77), were tested using JTE-151 at 90 mg/kg once per day. […] Considering the reduced tumor mass and cell numbers, the absence of a significant change in tumor volume may be due to necrotic cells that remained for a while post drug treatment.

[3] = test system: K562 cells; experiment: k562 colony assay in methylcellulose; assay type: cell-based, human
Source text: K562 is an aggressive human leukemia cell line generated from blast crisis chronic myeloid leukemia. […] Cells were allowed to grow over the course of 8 days before the numbers of formed colonies were counted. This was used to understand the functionality of k562 cells under different conditions. Cells treated with AZD-0284 formed fewer colonies and their morphology was smaller in comparison to the vehicle-treated cells.

[4] = test system: primary murine PanIN derived organoids; experiment: PanIN derived organoids; assay type: cell-based
Procedure: Moreover, RORγ inhibitor SR2211 can block the growth of benign pancreatic intraepithelial neoplasia (PanIN) lesions. The effect of SR2211 was tested on dissociated primary murine PanIN derived organoids.

[5] = test system: LuCA KP lung cancer cells; experiment: lung cancer tumor sphere formation; assay type: cell-based; details: 0.3 μM, 0.6 μM, 1 μM, and 1.2 μM; relative to control
Source text: Then the number of formed tumor spheres were counted and quantified as relative to control.

[6] = test system: primary patient derived xenografts; experiment: primary patient derived xenografts, SR2211; details: human
Procedure: Subcutaneous tumor dimensions were measured with calipers 1-2× weekly.

[7] = test system: KP^f/fC cells; experiment: pancreatic tumorsphere formation assay; assay type: cell-based, mouse; details: SR2211 vs vehicle
Procedure: Pancreatic tumorsphere formation assays were performed and modified from (Rovira et al., 2010). Briefly, low-passage (<6 passages) WT or REM2-KP^f/fC cell lines were infected with lentiviral particles containing shRNAs; positively infected (red) cells were sorted 72 hours after transduction. 100-300 infected cells were suspended in tumorsphere media: 100 μl DMEM F-12 (Gibco, Life Technologies) containing 1× B-27 supplement (Gibco, Life Technologies), 3% FBS, 100 μM B-mercaptoethanol (Gibco, Life Technologies), 1× non-essential amino acids (Gibco, Life Technologies), 1× N2 supplement (Gibco, Life Technologies), 20 ng/ml EGF (Gibco, Life Technologies), 20 ng/ml bFGF2 (Gibco, Life Technologies), and 10 ng/ml ESGRO mLIF (Thermo Fisher). Cells in media were plated in 96-well ultra-low adhesion culture plates (Costar) and incubated at 37° C. for 7 days. KP^f/fC in vitro tumorsphere formation studies were conducted at a minimum of n=3 independent wells per cell line across two independent shRNA of n=3 wells; however, the majority of these experiments were additionally completed in >1 independently-derived cell lines n=3, at n=3 wells per shRNA.

[8] = test system: primary patient-derived PDX202 pancreatic cancer cells; experiment: PDX202 organoid assay; assay type: cell-based, human; details: 3 μM JTE-151 alone
Procedure: Moreover, the anti-cancer effect of JTE-151 was determined in an organoid assay using pancreatic cancer cells derived from mice bearing primary patient-derived xenografts.

[9] = test system: non-germline KRAS/p53 organoids; experiment: non-germline KRAS/p53 organoid assay; assay type: cell-based, mouse; details: 3 μM, 6 μM, 9 μM JTE-151; 4 days
Procedure: First, pharmacologic blockade of RORγ using JTE-151 was tested on pancreatic cell organoids as described above. Pancreatic cancer cells derived from two genetically engineered mouse models (GEMMS) were used for the organoid studies (FIGS. 47, 48). […] Then, electroporation was used to promote incorporation of the DNA into the pancreatic cells.
About 4,000 organoids from each of the non-germline and germline mouse models were plated as single cells in multi-well plates, as described above, and treated with JTE-151 for 4 days (FIG. 48). Organoid number and size were analyzed after treatment. […] In the quantification, different doses of JTE-151 were plotted along the horizontal axis, and the volume of organoids was expressed as relative to control along the vertical axis. […] Organoid volume was then analyzed. Different doses of JTE-151 were plotted along the horizontal axis, and the vertical axis represents relative organoid volume to control.

[10] = test system: IL-17; experiment: circulating IL-17 level in tumor-bearing KP^f/fC mice; assay type: in vivo, mouse; details: 120 mg/kg JTE-151 regimen, responding mice (FIGS. 59-60)
Procedure: Similarly, the anti-cancer effect of JTE-151 was tested on tumor-bearing KP^f/fC mice in vivo at a higher dose of 120 mg/kg (FIGS. 59-61 showing three individual experiments). For each experiment, one mouse was given vehicle treatment, and another mouse was given the JTE-151 regimen as specified in the figures. For example, in FIG. 59, the JTE-151 mouse received 120 mg/kg body weight of JTE-151 for 2 weeks and then 90 mg/kg JTE-151 for 1 week. In the first 1.5 weeks, JTE-151 was given once daily, and in the second 1.5 weeks, JTE-151 was given twice daily. […] In each of FIGS. 59-61, the horizontal axis of each graph represents the target (vehicle vs. JTE-151 mouse), and the vertical axis represents the specified measurement.

[11] = test system: primary patient-derived xenografts; experiment: compilation of primary patient-derived xenografts, JTE-151; assay type: in vivo, human; details: JTE-151 vs vehicle, compilation (FIG. 78)
Source text: as §2, §3

[12] = AZD-0284 in combination with gemcitabine

SMILES: CC(=O)N1Cc2cc(S(C)(=O)=O)ccc2[C@@H]1C(=O)Nc1ccc(C(O)(C(F)(F)F)C(F)(F)F)cc1 [AZD-0284]
- EpCam+/CD133+ tumor stem cells ([1]; 90 mg/kg AZD-0284): decrease
- total cell number ([1]; 90 mg/kg AZD-0284): decrease
- EpCam+/CD133+ tumor stem cells [1, 12]: decrease
- total cell number [1, 12]: decrease
- EpCam+ tumor epithelial cells ([2]; 60 mg/kg AZD-0284 for 3 weeks): significant reduction
- EpCam+/CD133+ tumor stem cells ([2]; 60 mg/kg AZD-0284 for 3 weeks): significant reduction
- number of colonies formed ([3]; 1 μM, 3 μM, 5 μM, 10 μM, and 15 μM AZD-0284, 8 days): significant reduction
- colony morphology ([3]; in comparison to the vehicle-treated cells): smaller

SMILES: OC(c1ccc(-c2ccc(CN3CCN(Cc4ccncc4)CC3)cc2)c(F)c1)(C(F)(F)F)C(F)(F)F [SR2211]
- organoid number [4]: reduced
- organoid volume [4]: reduced
- tumor sphere formation [5]: significantly reduced
- tumor growth in vivo [6]: marked reduction
- sphere formation [7]: decreased

SMILES: Cc1ccc(NC(=O)C[C@H](CCC(=O)O)c2noc([C@H]3C[C@@H](CC(C)(C)C)C3)c2C2CC2)c(Cl)c1 [JTE-151, (4S)-6-[(2-chloro-4-methylphenyl)amino]-4-{4-cyclopropyl-5-[cis-3-(2,2-dimethylpropyl)cyclobutyl]isoxazol-3-yl}-6-oxohexanoic acid]
- organoid growth [8]: inhibited
- organoid growth [9]: visibly and significantly impaired; also recorded: inhibited
- circulating IL-17 levels [10]: decrease
- EpCam+ tumor epithelial cells ([2]; JTE-151 90 mg/kg once per day): trend of decreased
- EpCam+/CD133+ tumor stem cells ([2]; JTE-151 90 mg/kg once per day): trend of decreased
- total cell counts ([2]; JTE-151 90 mg/kg once per day): trend of decreased
- tumor mass ([2]; JTE-151 90 mg/kg once per day): trend of decreased
- tumor growth rate ([2]; JTE-151 90 mg/kg once per day (FIG. 77)): slower
- EpCam+ tumor epithelial cells [11]: significantly reduced
- EpCam+/CD133+ tumor stem cells [11]: significantly reduced
- cell number [11]: significantly reduced
- tumor mass [11]: significantly reduced
